How the values were obtained:
Assay type in all cases: in vivo, Zea mays
Corn seed (Hughes 5813) = experiment: Seed treatment with ABA and stimulators of guanylate cyclase, cold damage during germination
Method: Corn seed (Hughes 5813) was treated with sodium ABA salt as described under Example 3. ABA rates of 0 and 20 ug/seed were applied either alone or with compounds that are selective and potent activators of soluble guanylate cyclase in animal and plant cells. These agent are YC-1 (3-(5′-hydroxymethyl-2′-furyl)-1-benzylindazole) and BAY 41-2272 (5-cyclopropyl-2-[1-(2-fluoro-benzyl)-1H-pyrazolo[3,4-b]pyridine-3-yl]pyrimidin-4-ylamine).

[1] = test system: Corn ("Hughes High" variety) seedlings; experiment: Dip treatment of 2-day old corn seedlings, cold damage after 0° C. for 4 days (rolled towels); details: for Adventitious root growth (%) / Destroyed roots (%) / Lethal shoot (%): ~30 s, 0° C. 4 days, scored 3 days later
Method: Corn (“Hughes High” variety) was germinated in the dark in moist rolled towels at 25° C. for 2 days. Seedlings were selected that were undamaged, with a radicle of 1-2 cm and a coleoptile of 0.5 to 1 cm in length. Solutions in water with 5% ethanol were made with different concentrations of ABA and PBI-429. The seedlings were dipped in the solutions with gentle agitation for approximately 30 seconds and drained. The seedlings were placed on moist towels, gently rolled and held at 18° C. for 16 hours. Then the rolled towels were packed in ice for four days. After the chilling period, the rolled towels were blotted to remove excess water and transferred to a 25° C. chamber. Seedling damage was scored 3 days later. Lethal injury of the shoot consisted of either destruction of the mesocotyl or splitting or reduction of the coleoptile judged sufficient to prevent emergence of seedlings in the field (although this trial was conducted in towels). Seedlings with destroyed roots had no living primary or seminal roots. Seedlings with adventitious root growth from the mesocotyl were counted.

[2] = test system: "Hughes High" hybrid corn seed; experiment: Seed treatment with ABA, cold damage (ice, 4 days) during germination in moist towels; details: 48 h at 25° C., then ice 4 days
Method: ABA was applied to corn seed at 0, 1, 5, 25 and 125 g/cwt (seed weight basis). The ABA was first converted to the sodium salt to render it soluble before making up the experimental seed treatment slurries. The treatments were made up in 3 ml samples of an aqueous slurry. All of the seed treatment slurry samples contained CF-Clear film-forming agent and Colorcoat Red (Becker Underwood), each at loz/cwt, and 0.167 oz/cwt Maxim XL fungicide (Syngenta). The slurry application volume was 20 oz/cwt (cwt=100 lbs of seed). One hundred gram samples of “Hughes High” hybrid corn seed were treated with the experimental slurries using a Hege 11 seed treater with a six-inch bowl.
Three replications of 50 seeds each were planted were planted in moist towels and germinated in the dark at 25° C. for 48 hours. The rolled towels were then packed in ice for 4 days. After the cold period the towels were blotted and germination continued until the seedlings were large enough so that each seedling could be scored. In the case of the 125 g rate, this took 2 weeks. Seedling organs were scored independently for damage to the primary root, seminal roots, mesocotyl, coleoptile and the scutellar node.

Corn seed (Hughes 1883) [3] = experiment: Soil test, standard delayed chilling (severe chilling after 2 days germination); details: for Strong seedlings (%) / Viable seedlings (%): soil, 2 days germination, then 1° C. 4 days
Method: (§1) Corn seed (Hughes 1883) was treated with ABA ammonium salt as described under Example 2. ABA rates of 0, 5, 10 and 25 g/cwt were applied.
(§2) The seed was planted in plastic boxes containing lkg of typical agricultural silt loam. Fifty seeds were planted 3 cm deep in each plastic box, and the soil in the box was adjusted to 23% soil moisture (wet-weight basis). Two replications of the experiment were performed. Two kinds of cold tolerance assays were conducted, “standard delayed chilling” and “chilling at spiking.” The boxes for the standard delayed chilling were […] and transferred to 1° C. for four days. Boxes for the “chilling at spiking” treatment were allowed to germinate at 25° C. until the coleoptiles were first observed emerging from the soil. This common point of development varied from 3 to 6 days depending upon the dose of ABA. Then these boxes too were transferred to the 1° C. chamber for four days.
(§3) After the cold treatment the boxes were moved to the 25° C. chamber for one week. The soil was washed from the seedlings and each seedling scored for damage as described under Example 2. “Viable seedlings” were seedlings capable of surviving under typical field conditions.

Corn seed (Hughes 1883) [4] = experiment: Soil test, chilling at spiking (chilling at point of initial emergence); details: for Strong seedlings (%) / Viable seedlings (%): soil, 1° C. 4 days applied at initial emergence (spiking)
Method: as §1, §2, §3

[5] = Bay 41-2272 1 μg/seed, ABA 0 μg/seed
[6] = Bay 41-2272 10 μg/seed, ABA 0 μg/seed
[7] = ABA (sodium salt) seed treatment 1 g/cwt
[8] = ABA (sodium salt) seed treatment 5 g/cwt
[9] = ABA (sodium salt) seed treatment 25 g/cwt
[10] = ABA (sodium salt) seed treatment 125 g/cwt
[11] = ABA ammonium salt seed treatment 5 g/cwt
[12] = ABA ammonium salt seed treatment 10 g/cwt
[13] = ABA ammonium salt seed treatment 25 g/cwt
[14] = ABA (sodium salt) 20 μg/seed alone, sGC activator 0 μg/seed

## Nc1nc(-c2nn(Cc3ccccc3F)c3ncccc23)ncc1C1CC1 [Bay 41-2272, 5-cyclopropyl-2-[1-(2-fluoro-benzyl)-1H-pyrazolo[3,4-b]pyridine-3-yl]pyrimidin-4-ylamine]
Corn seed (Hughes 5813); [5]
  Percent Strong Seedlings: 1%
  Percent Viable Seedlings: 65%
Corn seed (Hughes 5813); [6]
  Percent Strong Seedlings: 0%
  Percent Viable Seedlings: 64%

## OCc1ccc(-c2nn(Cc3ccccc3)c3ccccc23)o1 [YC-1, 3-(5′-hydroxymethyl-2′-furyl)-1-benzylindazole]
Corn seed (Hughes 5813); YC-1 1 μg/seed, ABA 0 μg/seed
  Percent Strong Seedlings: 0%
  Percent Viable Seedlings: 44%
Corn seed (Hughes 5813); YC-1 10 μg/seed, ABA 0 μg/seed
  Percent Strong Seedlings: 4%
  Percent Viable Seedlings: 46%

## S-(+)-abscisic acid [ABA]
[1]; ABA dip 10 ppm
  Adventitious root growth (%): 7%
  Destroyed roots (%): 86%
  Lethal shoot (%): 62%
[1]; ABA dip 100 ppm
  Adventitious root growth (%): 20%
  Destroyed roots (%): 84%
  Lethal shoot (%): 47%
[1]; ABA dip 1000 ppm
  Adventitious root growth (%): 89%
  Destroyed roots (%): 48%
  Lethal shoot (%): 11%
[1]; applied to the seedling prior to cold stress
  Protection of seedlings from cold injury (in words): can provide protection from injury, and stimulate adventitious root growth
[2]; [7]
  Seedlings with lethal root injury (%): 23.3%
  Seedlings with lethal shoot injury (%): 19.3%
  Strong seedlings (%): 18.0%
[2]; [8]
  Seedlings with lethal root injury (%): 0.7%
  Seedlings with lethal shoot injury (%): 8.0%
  Strong seedlings (%): 88.7%
[2]; [9]
  Seedlings with lethal root injury (%): 0.0%
  Seedlings with lethal shoot injury (%): 15.5%
  Strong seedlings (%): 95.3%
[2]; [10]
  Seedlings with lethal root injury (%): 0.7%
  Seedlings with lethal shoot injury (%): 11.4%
  Strong seedlings (%): 81.3%
Corn seed (Hughes 1883) [3]; [11]
  Strong seedlings (%): 53%
  Viable seedlings (%): 99.5%
Corn seed (Hughes 1883) [3]; [12]
  Strong seedlings (%): 96%
  Viable seedlings (%): 99.5%
Corn seed (Hughes 1883) [3]; [13]
  Strong seedlings (%): 100%
  Viable seedlings (%): 100%
Corn seed (Hughes 1883) [3]; delivered as a seed treatment
  Protection from cold in field soil (in words): protection of germinating seeds and young seedlings in field soil
Corn seed (Hughes 1883) [4]; [11]
  Strong seedlings (%): 0%
  Viable seedlings (%): 5%
Corn seed (Hughes 1883) [4]; [12]
  Strong seedlings (%): 18%
  Viable seedlings (%): 62%
Corn seed (Hughes 1883) [4]; [13]
  Strong seedlings (%): 10%
  Viable seedlings (%): 23%
Corn seed (Hughes 1883) [4]; seed treatment, chilling at spiking
  Protection of seedlings from cold damage (in words): results not only from delay of germination, but from induction of cold tolerance in the tissue
Corn seed (Hughes 5813); [14]
  Percent Strong Seedlings: 67%
  Percent Viable Seedlings: 100%

— US20080318783A1, “Use of abscisic acid seed treatment to enhance corn emergence after early planting” (priority 2007, published 2008)
